# Several values for one entry are separate records, joined by “and”; a condition that tells them apart may be missing. Identical values can stand only once. Entries after “also recorded” stand apart in the source; their conditions may differ. Like-named read-outs stand apart in the source and are kept apart here.
# Key:
# [1] = earlier studies; cited from earlier work
# [2] = for Cmax: geometric mean (%CV, n)
# [3] = single 45-mg oral dose of 14C-labeled ponatinib, healthy volunteers; cited from earlier work
# [4] = monkeys; preclinical studies; cited from earlier work
# [5] = cited from earlier work
# [6] = rats; preclinical studies; cited from earlier work
# [7] = test system: cells expressing all BCR-ABL mutants tested, including the T315I gatekeeper mutant; conditions: preclinical; includes T315I; cited from earlier work
# [8] = Safety and tolerability in the ponatinib ± ketoconazole crossover study
# [9] = bosutinib + ketoconazole 400 mg once daily; cited from earlier work
# [10] = dasatinib + ketoconazole 200 mg twice daily; cited from earlier work
# [11] = nilotinib + ketoconazole 400 mg once daily; cited from earlier work
# [12] = ponatinib + ketoconazole vs ponatinib alone
# [13] = ponatinib + ketoconazole vs ponatinib alone, from estimated mean ratio
# [14] = ponatinib alone, 2 of 23 subjects
# [15] = ponatinib with ketoconazole, 2 of 23 subjects
smiles,measurement,setting,value
Cc1ccc(C(=O)Nc2ccc(CN3CCNCC3)c(C(F)(F)F)c2)cc1C#Cc1cnc2cccnn12 [AP24567],"Potency, less potent than ponatinib",[1],4 fold
Cc1ccc(C(=O)O)cc1C#Cc1cnc2cccnn12 [AP24600],Pharmacological activity,[1],pharmacologically inactive
Cc1ccc(C(=O)Nc2ccc(CN3CCN(C)CC3)c(C(F)(F)F)c2)cc1C#Cc1cnc2cccnn12 [Ponatinib],AUC(0-inf),"[2]; human, in vivo, 15 mg",472 ng·h/mL
same,AUC(0-t),"[2]; human, in vivo, 15 mg",414 ng·h/mL
same,half-life,"[2]; human, in vivo, 15 mg",35.3 h
same,Cmax,"[2]; human, in vivo, 15 mg, Cmax, ponatinib 15 mg alone",16.1 ng/mL
same,Tmax,"[2]; human, in vivo, po, 15 mg",~6 h
same,Cmax,[2]; ponatinib 15 mg + ketoconazole 400 mg daily,"23.6 (30.7, 22) ng/mL"
same,Cmax,[2]; ponatinib 15 mg alone,"16.1 (36.0, 22) ng/mL"
same,Effect of ketoconazole on t1/2 / terminal elimination,[2]; [12],not essentially affected; also recorded: did not affect
same,Effect of ketoconazole on tmax,[2]; [12],not affected; also recorded: did not affect
same,"Increase in exposure, Cmax",[2]; [12],47%
same,"Increase in exposure, AUC0–t",[2]; [13],70%
same,"Increase in exposure, AUC0–∞",[2]; [13],78%
same,Time at which mean plasma concentrations reached a maximum,"[2]; single oral dose of 15 mg, independent of ketoconazole coadministration",5 to 6 h
same,Total radioactivity recovered in feces,[3],87%
same,Total radioactivity recovered in urine,[3],5%
same,Absolute oral bioavailability,[4],20%
same,Steady-state trough plasma concentration,[5]; daily doses of 30 mg,> 40 nM
same,Accumulation of AUC from first dose to steady-state,[5]; once-daily ponatinib 45 mg,approximately 1.5 fold
same,"Steady-state trough concentration, geometric mean",[5]; once-daily ponatinib 45 mg,64 nM and 34.2 ng/mL
same,Dose proportionality of exposure (Cmax and AUC),"[5]; patients, initial dose and steady-state, doses 2 to 60 mg",approximately dose-proportional
same,Time of maximum plasma levels,"[5]; patients, oral once-daily ponatinib, postdose",approximately 4 hours
same,Elimination half-life,"[5]; ponatinib 45 mg, patients",approximately 22 hours
same,Relation to maximum tolerated dose,"[5]; ponatinib 60 mg daily, phase 1 study",exceeded the maximum tolerated dose
same,Absolute oral bioavailability,[6],54%
same,Concentration sufficient to inhibit viability of cells expressing all BCR-ABL mutants tested and to suppress emergence of mutant clones,[7],40 nM
same,Serious AEs,[8]; both regimens,no serious AEs
same,Subjects with at least one drug-related AE,[8]; both regimens,Nine
same,"Vital sign, ECG, physical examination findings",[8]; both regimens,"No treatment-related or clinically significant vital sign, ECG, or physical examination findings"
same,Subjects with at least one treatment-emergent adverse event,"[8]; of 23 subjects, both regimens, all mild",Eleven
same,Tolerability,"[8]; ponatinib 15 mg, both alone and in combination with ketoconazole",generally well tolerated
same,Increased lipase (TEAE),[8]; [14],8.7%
same,Somnolence (TEAE),[8]; [14],8.7%
same,Headache (TEAE),[8]; [15],8.7%
same,Somnolence (TEAE),[8]; [15],8.7%
COc1cc(Nc2c(C#N)cnc3cc(OCCCN4CCN(C)CC4)c(OC)cc23)c(Cl)cc1Cl [bosutinib],Decrease in apparent clearance,[9],9 fold
same,Increase in AUC0–t,[9],7.6 fold
same,Increase in AUC0–∞,[9],8.6 fold
same,Increase in Cmax,[9],5.2 fold
same,Prolongation of t1/2,[9],22.8 h
Cc1nc(Nc2ncc(C(=O)Nc3c(C)cccc3Cl)s2)cc(N2CCN(CCO)CC2)n1 [dasatinib],Increase in AUC,[10],4.8 fold
same,Increase in Cmax,[10],3.6 fold
same,Prolongation of t1/2,[10],5.4 h
Cc1cn(-c2cc(NC(=O)c3ccc(C)c(Nc4nccc(-c5cccnc5)n4)c3)cc(C(F)(F)F)c2)cn1 [nilotinib],Decrease in apparent clearance,[11],2.5 fold
same,Increase in AUC0–t,[11],1.8 fold
same,Increase in AUC0–∞,[11],3 fold
same,Increase in t1/2,[11],17.5 h
